Data from patent US20260103465A1, “GLYCOGEN SYNTHASE KINASE 3 INHIBITORS AND USES THEREOF” (The Broad Institute, Inc., priority 2023, published 2026).
Like-named read-outs stand apart in the source and are kept apart here.

Columns and labels:
[1] = target: T1, GSK3b (GST-full length GSK3b) (Homo sapiens, UniProt P49841); assay: GSK3b TR-FRET kinase inhibition assay; format: biochemical
T1 construct: GST-full length GSK3b: [SignalChem G08-9G]; purchased SignalChem G08-9G
Procedure, shortened: (§1)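 IC50 derived from normalized 665/615 TR-FRET signal (Tb anti-pSer641 antibody, streptavidin-d2), read after EDTA stop. Reaction: 1 nM GST-full-length enzyme, 30 min compound pre-incubation, 100 min at ambient temperature in Tris pH 7.5 with 1% DMSO, 200 nM biotinylated primed glycogen synthase peptide, ATP 2 μM to 1 mM.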

[2] = target: T2, GSK3a (GST-full length GSK3a) (Homo sapiens, UniProt P49840); assay: GSK3a TR-FRET kinase inhibition assay; format: biochemical
T2 construct: GST-full length GSK3a [SignalChem G08-10G]; purchased SignalChem G08-10G
Procedure, shortened: as §1

[3] = Human liver microsomal stability; format: in vitro ADME; details: human liver microsomes
Description: Stability of compound (5 μL of a 10 mM DMSO solution) in human liver microsomes was tested in duplicate by incubating compound at 1 μM for 60 minutes at 37° C. Compound level at 60 minutes was compared to level at 0 minutes, and percent remaining was calculated. Order by selecting Microsomal Stability in Prometheus, checking boxes for desired species. Assay Controls: microsomes with NADPH without compound-matrix interference. Microsomes plus compound without NADPH—non-enzymatic instability.

[4] = tested on: MDR1-MDCK cell monolayers; assay: MDR1/MDCK permeability assay; format: in vitro ADME; details: for MDCK Permeability (MDR1-MDCK); Mean; Papp(A-B) (10^−6 cm/s): A to B; for MDCK Permeability (MDR1-MDCK); Mean; Papp(B-A) (10^−6 cm/s): B to A; for MDCK Permeability (MDR1-MDCK); Mean; P. Ratio(B-A/A-B) Efflux Ratio / MIDCK Permeability (MDR1-MDCK); Mean; P. Ratio(B-A/A-B) Efflux Ratio: Papp B-A/A-B
Text: The MDR1/MDCK assay is run at WuXi and Absorption Systems. This assay is used to determine the blood-brain barrier (BBB) penetration potential of a test compound using MDR1-MDCK cell monolayers. Catalog number EA203.
• The percent recovery of the test compound from the Transwell® wells containing MDR1-MDCK cell monolayers • The apparent permeability (Papp) in both directions • The efflux ratio (Papp B to A)/(Papp A to B) • The blood-brain barrier penetration potential classification: • High when • Papp A to B≥3.0×10^−6 cm/s, and efflux<3.0 • Moderate when • Papp A to B≥3.0×10^−6 cm/s, and 10>efflux≥3.0 • Low when either • Papp A to B≥3.0×10^−6 cm/s, and […], or when • Papp A to B<[…].
• Test compound at 5 μM in HBSSg with maximum DMSO concentration not greater than 1%.
• Confluent monolayers of MDR1-MDCK cells, 7 to 11 days old.
• Receiver well with 1% BSA in modified Hanks buffer (HBSSg) • Apical and basolateral side at pH 7.4 • Dose two monolayers in each direction (N=2) • Dose apical side for (A to B) assessment • Dose basolateral side for (B to A) assessment • Sample both apical and basolateral sides at 120 minutes • Determine the concentrations of test compound using a generic LC-MS/MS method with a minimum 4 point calibration curve.
• The quality of the cell monolayer batch is verified using control compounds before monolayers are released for use • The quality of each monolayer used in the assay is verified by a TEER measurement and by calculating the Papp for a control compound.

[5] = 2 μM ATP, read-out: GSK3β TR-FRET 2 μM ATP GMean IC50
[6] = 10 μM ATP, read-out: GSK3b 10 μM ATP Average IC50
[7] = 100 μM ATP, read-out: GSK3b 100 μM ATP Average IC50
[8] = 1 mM ATP, Table 3, read-out: GSK3b TR-FRET 1 mM ATP Average IC50
[9] = 1 mM ATP, Table 4, read-out: GSK3β TR-FRET 1 mM ATP GMean IC50
[10] = 4 μM ATP, read-out: GSK3α TR-FRET 4 μM ATP GMean IC50
[11] = 10 μM ATP, read-out: GSK3a 10 μM ATP Average IC50
[12] = 100 μM ATP, read-out: GSK3a 100 μM ATP Average IC50
[13] = 1 mM ATP, Table 3, read-out: GSK3a TR-FRET 1 mM ATP Average IC50
[14] = 1 mM ATP, Table 4, read-out: GSK3α TR-FRET 1 mM ATP GMean IC50

T2 sequence (P49840 whole entry): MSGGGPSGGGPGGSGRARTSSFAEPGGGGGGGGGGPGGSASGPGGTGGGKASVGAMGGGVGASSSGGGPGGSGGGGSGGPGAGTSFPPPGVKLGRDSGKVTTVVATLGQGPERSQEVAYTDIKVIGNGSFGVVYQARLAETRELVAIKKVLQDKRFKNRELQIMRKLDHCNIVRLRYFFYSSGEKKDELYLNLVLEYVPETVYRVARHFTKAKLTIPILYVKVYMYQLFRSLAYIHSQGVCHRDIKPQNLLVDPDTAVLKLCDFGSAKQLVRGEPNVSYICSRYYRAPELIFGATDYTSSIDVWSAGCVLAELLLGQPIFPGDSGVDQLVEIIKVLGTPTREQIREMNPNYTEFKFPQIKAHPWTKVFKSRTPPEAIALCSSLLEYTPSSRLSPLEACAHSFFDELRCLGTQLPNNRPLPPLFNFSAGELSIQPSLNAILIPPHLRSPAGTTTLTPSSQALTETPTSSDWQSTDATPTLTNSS
T1 sequence (P49841 whole entry): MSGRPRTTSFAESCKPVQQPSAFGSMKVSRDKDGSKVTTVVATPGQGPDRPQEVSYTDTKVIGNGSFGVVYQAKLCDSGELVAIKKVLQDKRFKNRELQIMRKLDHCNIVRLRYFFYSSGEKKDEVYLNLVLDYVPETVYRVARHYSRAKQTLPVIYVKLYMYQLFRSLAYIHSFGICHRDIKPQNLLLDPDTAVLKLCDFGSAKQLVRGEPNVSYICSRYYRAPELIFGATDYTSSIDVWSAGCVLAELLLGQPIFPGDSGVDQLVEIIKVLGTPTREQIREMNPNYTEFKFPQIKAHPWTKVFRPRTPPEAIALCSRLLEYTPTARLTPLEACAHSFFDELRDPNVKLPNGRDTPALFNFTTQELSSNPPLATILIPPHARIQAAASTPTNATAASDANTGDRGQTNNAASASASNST

| Structure (SMILES) | IC50 [1, 5] | IC50 [1, 6] | IC50 [1, 7] | IC50 [1, 8] | IC50 [1, 9] | IC50 [2, 10] | IC50 [2, 11] | IC50 [2, 12] | IC50 [2, 13] | IC50 [2, 14] | Microsome Stability (Human) (DMPK_BIIB); Mean; in vitro t1/2 ([3]; Table 3) | Microsome Stability (Human) (DMPK_BIIB); Mean; in vitro t1/2 ([3]; Table 4) | MDCK Permeability (MDR1-MDCK); Mean; Papp(A-B) (10^−6 cm/s) ([4]; Table 4) | MDCK Permeability (MDR1-MDCK); Mean; Papp(B-A) (10^−6 cm/s) ([4]; Table 4) | MDCK Permeability (MDR1-MDCK); Mean; P. Ratio(B-A/A-B) Efflux Ratio ([4]; Table 4) | MDCK Permeability (MDR1-MDCK); Mean; Papp(A-B) (10^−6 cm/s) ([4]; Table 3) | MDCK Permeability (MDR1-MDCK); Mean; Papp(B-A) (10^−6 cm/s) ([4]; Table 3) | MIDCK Permeability (MDR1-MDCK); Mean; P. Ratio(B-A/A-B) Efflux Ratio ([4]; Table 3) |
| --- | --- | --- | --- | --- | --- | --- | --- | --- | --- | --- | --- | --- | --- | --- | --- | --- | --- | --- |
| CCC1(c2cccc(-c3cncn3C(C)C)c2)C2=C(CC(C)(C)CC2=O)Nc2ncccc21 (single isomer, unassigned) [Compound 149A] | ≤ 0.1 µM | ≤ 0.1 µM | ≤ 0.1 µM | 0.1 to 1 µM | 0.1 to 1 µM | ≤ 0.1 µM | ≤ 0.1 µM | ≤ 0.1 µM | 0.1 to 1 µM | ≤ 0.1 µM | 16 min | 9.9 min | 2.3 10^−6 cm/s | 41 10^−6 cm/s | 18 | – | – | – |
| CCC1(c2cccc(-c3c(C)nn(C)c3C)c2)C2=C(CC(C)(C)CC2=O)Nc2ncccc21 (single isomer, unassigned) [Compound 150A] | > 5 µM | ≤ 0.1 µM | ≤ 0.1 µM | 0.1 to 1 µM | – | 1 to 5 µM | ≤ 0.1 µM | ≤ 0.1 µM | 0.1 to 1 µM | – | 1.9 min | – | – | – | – | 20 10^−6 cm/s | 17 10^−6 cm/s | 0.93 |
| CCC1(c2cccc(-c3c(C)nn(C)c3C)c2)C2=C(CC(C)(C)CC2=O)Nc2ncccc21 (single isomer, unassigned) [Compound 150B] | ≤ 0.1 µM | – | – | – | 1 to 5 µM | ≤ 0.1 µM | – | – | – | 0.1 to 1 µM | – | 2.7 min | 2.9 10^−6 cm/s | 29 10^−6 cm/s | 9.9 | – | – | – |
| CCC1(c2cccc(-c3c(F)cncc3OC)c2)C2=C(CC(C)(C)CC2=O)Nc2ncccc21 (single isomer, unassigned) [Compound 154A] | > 5 µM | – | – | – | – | > 5 µM | – | – | – | – | 6.4 min | – | – | – | – | 15 10^−6 cm/s | 9.5 10^−6 cm/s | 0.62 |
| CCC1(c2cccc(-c3c(F)cncc3OC)c2)C2=C(CC(C)(C)CC2=O)Nc2ncccc21 (single isomer, unassigned) [Compound 154B] | ≤ 0.1 µM | – | – | 5 to 20 µM | 0.1 to 1 µM | ≤ 0.1 µM | – | – | 5 to 20 µM | ≤ 0.1 µM | – | 6.6 min | 3.1 10^−6 cm/s | 25 10^−6 cm/s | 8.3 | – | – | – |
| CCC1(c2cccc(-c3c(F)cncc3OC)c2)C2=C(CC(C)(C)CC2=O)Nc2ncc(F)cc21 (single isomer, unassigned) [Compound 161A] | 1 to 5 µM | – | – | – | – | 0.1 to 1 µM | – | – | – | – | 10 min | – | – | – | – | 12 10^−6 cm/s | 6.9 10^−6 cm/s | 0.59 |
| CCC1(c2cccc(-c3c(F)cncc3OC)c2)C2=C(CC(C)(C)CC2=O)Nc2ncc(F)cc21 (single isomer, unassigned) [Compound 161B] | ≤ 0.1 µM | – | – | 1 to 5 µM | ≤ 0.1 µM | ≤ 0.1 µM | – | – | 0.1 to 1 µM | ≤ 0.1 µM | – | 5.6 min | 5.2 10^−6 cm/s | 33 10^−6 cm/s | 6.4 | – | – | – |
| CCC1(c2cccc(-c3ccnc4c3CCCC4)c2)C2=C(CC(C)(C)CC2=O)Nc2ncc(F)cc21 (single isomer, unassigned) [Compound 165B] | ≤ 0.1 µM | – | – | – | 0.1 to 1 µM | ≤ 0.1 µM | – | – | – | 0.1 to 1 µM | – | 4.7 min | 4.4 10^−6 cm/s | 24 10^−6 cm/s | 5.5 | – | – | – |
| CC(C)(C)Cc1cnccc1-c1cccc(C2(C)C3=C(CC(C)(C)CC3=O)Nc3ncc(F)cc32)c1 (single isomer, unassigned) [Compound 168A] | – | – | – | 0.1 to 1 µM | – | – | – | – | 0.1 to 1 µM | – | 33 min | – | – | – | – | 2.5 10^−6 cm/s | 2.2 10^−6 cm/s | 0.90 |
| CCC1(c2cccc(O)c2)C2=C(CC(C)(C)CC2=O)Nc2ncccc21 (single isomer, unassigned) [Compound 1004A] | ≤ 0.1 µM | – | – | – | – | ≤ 0.1 µM | – | – | – | – | – | 7.7 min | 1.2 10^−6 cm/s | 42 10^−6 cm/s | 37 | – | – | – |
| CCC1(c2cccc(O)c2)C2=C(CC(C)(C)CC2=O)Nc2ncccc21 (single isomer, unassigned) [Compound 1004B] | > 5 µM | – | – | – | – | 1 to 5 µM | – | – | – | – | – | 5.3 min | 0.7 10^−6 cm/s | 47 10^−6 cm/s | 65 | – | – | – |
| CCC1(c2ccccc2)C2=C(Nc3ncccc31)C(F)C(C)(C)CC2=O (single isomer, unassigned) [Compound 1006C] | 1 to 5 µM | – | – | – | – | 1 to 5 µM | – | – | – | – | – | 37 min | 18 10^−6 cm/s | 31 10^−6 cm/s | 1.8 | – | – | – |
| CCC1(c2ccccc2)C2=C(CC(C)(C)NC2=O)Nc2ncc(F)cc21 (single isomer, unassigned) [Compound 1007B] | ≤ 0.1 µM | – | – | – | 5 to 20 µM | ≤ 0.1 µM | – | – | – | 1 to 5 µM | – | 211 min | 7.8 10^−6 cm/s | 45 10^−6 cm/s | 5.7 | – | – | – |
| CCC1(c2ccccc2)C2=C(CC3(CCC3)CC2=O)Nc2ncc(F)cc21 (single isomer, unassigned) [Compound 1008A] | ≤ 0.1 µM | – | – | – | 1 to 5 µM | ≤ 0.1 µM | – | – | – | 0.1 to 1 µM | – | 19 min | 22 10^−6 cm/s | 26 10^−6 cm/s | 1.2 | – | – | – |
| CCC1(c2ccccc2)C2=C(CC3(CCC3)CC2=O)Nc2ncc(F)cc21 (single isomer, unassigned) [Compound 1008B] | 1 to 5 µM | – | – | – | – | 1 to 5 µM | – | – | – | – | – | 1.6 min | 21 10^−6 cm/s | 31 10^−6 cm/s | 1.5 | – | – | – |
